Results reported in patent publication US10550100B2, “5-[3-[piperzin-1-yl]-3-oxo-propyl]-imidazolidine-2,4-dione derivatives as ADAMTS 4 and 5 inhibitors for treating E.G. osteoarthritis” (GALAPAGOS NV, priority 2016, dated 2020).
Read-outs that look alike come from different tables or passages of the source.

Legend:
Format in all cases: biochemical
human MMP13 = human MMP13 (Homo sapiens (Human), UniProt P45452); test: hMMP13 390 MMP FRET Substrate I cleavage assay, Protocol 2; conditions: Protocol 2, 390 MMP FRET Substrate I; read-out: hMMP-13 potency IC50
Procedure: The basis for the assay is the cleavage of the substrate 390 MMP FRET Substrate I (Anaspec Cat# AS-27076) by human MMP13 (Chemicon, Cat#CC068).
Human MMP13 is preactivated by incubated the enzyme in the same buffer complemented with 1 mM freshly prepared p-Aminophenylmercuric acetate (AMPA) for 1 h at 37° C.
(§1) The reaction is initiated by adding to the assay plate 390 MMP FRET Substrate I (10 μL, 2.5 μM) in the same buffer.
Finally, the fluorescence is read on the Envision (Perkin Elmer) after an incubation of 45 min at room temperature (Excitation 485 nm, Emission 530).

human ADAMTS6 = human ADAMTS6 (Homo sapiens (Human), UniProt Q9UKP5); test: hADAMTS-6 520 MMP FRET substrate XII cleavage assay; conditions: 37° C. for 2 h, read-out: hADAMTS-6 potency IC50
Sequence of human ADAMTS6 (Q9UKP5 other isoform, or with tags, fused parts or gaps): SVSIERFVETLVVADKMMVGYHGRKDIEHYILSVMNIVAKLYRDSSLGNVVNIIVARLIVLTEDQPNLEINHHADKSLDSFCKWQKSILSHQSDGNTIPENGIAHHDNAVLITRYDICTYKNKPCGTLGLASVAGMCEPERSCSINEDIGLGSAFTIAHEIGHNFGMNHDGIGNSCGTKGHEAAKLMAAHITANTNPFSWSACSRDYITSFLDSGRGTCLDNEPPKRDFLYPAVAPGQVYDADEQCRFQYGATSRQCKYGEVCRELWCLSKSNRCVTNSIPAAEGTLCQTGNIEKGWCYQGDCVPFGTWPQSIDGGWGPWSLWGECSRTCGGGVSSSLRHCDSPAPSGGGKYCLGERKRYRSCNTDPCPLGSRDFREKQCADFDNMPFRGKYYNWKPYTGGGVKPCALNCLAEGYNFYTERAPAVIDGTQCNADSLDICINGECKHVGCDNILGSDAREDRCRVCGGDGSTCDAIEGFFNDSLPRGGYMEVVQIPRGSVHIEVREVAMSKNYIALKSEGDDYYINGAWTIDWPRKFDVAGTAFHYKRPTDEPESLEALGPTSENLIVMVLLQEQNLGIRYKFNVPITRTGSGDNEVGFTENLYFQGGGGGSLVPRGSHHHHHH
Outline: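 FRET cleavage of 520 MMP Substrate XII (Arg-Pro-Lys-Pro-Tyr-Ala-Nva-Trp-Met-Lys) by 0.73 nM enzyme in 25 mM Tris pH8.0, 0.05% CHAPS, 2.5 mM CaCl2. Compound dilution series from 20 μM top, 1/5 steps; substrate added from 1 μM stock, 2 h at 37° C. Fluorescence read at exc485/em530 for IC50.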

human MMP14 = human MMP14 (Homo sapiens (Human), UniProt P50281); test: hMMP14 390 MMP FRET Substrate I cleavage assay; conditions: 60 min at room temperature, read-out: hMMP-14 potency IC50
Procedure: The basis for the assay is the cleavage of the substrate 390 MMP FRET Substrate I (Anaspec Cat# AS-27076) by human MMP14 (Biomol, Cat#SE-259).
as §1
Finally, the fluorescence is read on the Envision (Perkin Elmer) after an incubation of 60 min at room temperature (Excitation 485 nm, Emission 530).

human ADAMTS-5 = human ADAMTS-5 (Homo sapiens (Human), UniProt Q9UNA0); test: hADAMTS-5 TBIS-1 cleavage assay, Protocol 3; conditions: Protocol 3, TBIS-1 substrate, 90 min at 37° C.; read-out: hADAMTS-5 potency IC50
Sequence of human ADAMTS-5 (Q9UNA0 262-930): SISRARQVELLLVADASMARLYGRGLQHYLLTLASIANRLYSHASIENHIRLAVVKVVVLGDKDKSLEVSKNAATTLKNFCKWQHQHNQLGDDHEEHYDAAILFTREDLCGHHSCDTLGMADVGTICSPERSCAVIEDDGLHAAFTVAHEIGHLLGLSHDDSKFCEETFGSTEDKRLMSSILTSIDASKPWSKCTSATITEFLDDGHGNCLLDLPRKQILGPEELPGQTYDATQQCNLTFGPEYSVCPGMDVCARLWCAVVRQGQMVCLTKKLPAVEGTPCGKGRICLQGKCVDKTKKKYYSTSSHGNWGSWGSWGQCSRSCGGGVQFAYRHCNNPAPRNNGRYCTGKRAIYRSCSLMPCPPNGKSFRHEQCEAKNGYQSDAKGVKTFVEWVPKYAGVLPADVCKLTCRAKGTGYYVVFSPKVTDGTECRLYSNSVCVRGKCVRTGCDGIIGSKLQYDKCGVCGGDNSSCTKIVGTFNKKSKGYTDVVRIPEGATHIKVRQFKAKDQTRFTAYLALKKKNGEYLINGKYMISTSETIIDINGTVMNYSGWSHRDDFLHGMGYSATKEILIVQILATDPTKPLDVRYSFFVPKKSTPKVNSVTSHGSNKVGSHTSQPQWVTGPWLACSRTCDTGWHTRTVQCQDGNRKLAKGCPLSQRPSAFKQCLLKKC
Procedure: The reaction is initiated by adding to the assay plate TBIS-1 (10 μL, 4.5 μM, Anaspec) in the same buffer.
Finally, the fluorescence is read on the Envision (Perkin Elmer) after an incubation of 90 min at 37° C. (Excitation 485 nm, emission 530).

human TACE = human TACE (Homo sapiens (Human), UniProt P78536); test: hTACE 5FAM-[…]-5TAMRA cleavage assay; conditions: 75 min at room temperature, read-out: hTACE potency IC50
Sequence of human TACE (P78536 215-671): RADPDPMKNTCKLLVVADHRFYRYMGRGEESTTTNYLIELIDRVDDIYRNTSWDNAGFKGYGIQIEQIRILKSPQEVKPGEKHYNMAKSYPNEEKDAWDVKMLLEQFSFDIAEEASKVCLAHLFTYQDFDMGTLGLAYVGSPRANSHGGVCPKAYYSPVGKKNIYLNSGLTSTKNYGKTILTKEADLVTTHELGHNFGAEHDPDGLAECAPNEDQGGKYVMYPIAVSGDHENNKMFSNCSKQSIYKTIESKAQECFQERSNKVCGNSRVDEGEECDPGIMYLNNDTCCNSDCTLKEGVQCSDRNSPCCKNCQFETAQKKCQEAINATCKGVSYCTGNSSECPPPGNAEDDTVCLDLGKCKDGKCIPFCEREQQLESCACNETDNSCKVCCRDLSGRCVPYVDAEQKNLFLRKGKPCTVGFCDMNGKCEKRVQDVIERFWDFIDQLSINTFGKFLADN
Procedure: Finally, the fluorescence is read on the Envision (Perkin Elmer) after an incubation of 75 min at room temperature (Excitation 485 nm, Emission 530).

SMILES	IC50 (human MMP13) [nM]	IC50 (human ADAMTS6) [nM]	IC50 (human MMP14) [nM]	IC50 (human ADAMTS-5) [nM]	IC50 (human TACE; 5FAM-[…]-5TAMRA) [nM]	IC50 (human TACE; 5FAM-LAQAVRSSSRK-5TAMRA) [nM]
COC[C@]1(C[C@H](C)C(=O)N2CCC(c3cc(C)c(Cl)c(OC)c3)CC2)NC(=O)NC1=O (stereo in doubt) [Cpd 114, 5-[3-[4-(4-chloro-3-methoxy-5-methyl-phenyl)-1-piperidyl]-2-methyl-3-oxo-propyl]-5-(methoxymethyl) imidazolidine-2,4-dione]	> 100	0.001 to 25	> 100	25 to 50	50 to 100	
Cc1cc(Cl)c(Cl)cc1C1CCN(C(=O)CCC2(C)NC(=O)NC2=O)CC1 (centres unmarked) [Cpd 71, 5-(3-(4-(4,5-dichloro-2-methylphenyl)piperidin-1-yl)-3-oxopropyl)-5-methylimidazolidine-2,4-dione]	> 100	0.001 to 25	> 100	> 100	50 to 100	
COc1cc(C2CCN(C(=O)CCC3(C)NC(=O)NC3=O)CC2)cc(OC)c1F (centres unmarked) [Cpd 72]	> 100	0.001 to 25	> 100	> 100		> 100
COc1cc(C2CCN(C(=O)CCC3(C)NC(=O)NC3=O)CC2)cc(Cl)c1F (centres unmarked) [Cpd 73, 5-(3-(4-(3-chloro-4-fluoro-5-methoxyphenyl)piperidin-1-yl)-3-oxopropyl)-5-methylimidazolidine-2,4-dione]	> 100	0.001 to 25	> 100	> 100		> 100
COc1cc(Cl)ccc1C1CCN(C(=O)CC[C@@]2(C)NC(=O)NC2=O)CC1 [Cpd 79, (5R)-5-[3-[4-(4-chloro-2-methoxy-phenyl)-1-piperidyl]-3-oxo-propyl]-5-methyl-imidazolidine-2,4-dione]	> 100	0.001 to 25	> 100	> 100		> 100
COc1cc(C2CCN(C(=O)CC[C@@]3(C)NC(=O)NC3=O)CC2)cc(OC)c1F [Cpd 81, (5R)-5-[3-[4-(4-fluoro-3,5-dimethoxy-phenyl)-1-piperidyl]-3-oxo-propyl]-5-methyl-imidazolidine-2,4-dione]	> 100	0.001 to 25	> 100	50 to 100	25 to 50	
COc1cc(Cl)c(C)cc1C1CCN(C(=O)CC[C@@]2(C)NC(=O)NC2=O)CC1 [Cpd 89, (5R)-5-[3-[4-(4-chloro-2-methoxy-5-methyl-phenyl)-1-piperidyl]-3-oxo-propyl]-5-methyl-imidazolidine-2,4-dione]	> 100	0.001 to 25	> 100	> 100	50 to 100	
Cc1cc(C2CCN(C(=O)CC[C@@]3(C)NC(=O)NC3=O)CC2)cc(C)c1Cl [Cpd 93, (5R)-5-[3-[4-(4-chloro-3,5-dimethyl-phenyl)-1-piperidyl]-3-oxo-propyl]-5-methyl-imidazolidine-2,4-dione]	> 100	0.001 to 25	> 100	> 100	50 to 100	
COc1cc(C2CCN(C(=O)CC[C@@]3(C)NC(=O)NC3=O)CC2)cc(C)c1Cl [Cpd 98, (5R)-5-[3-[4-(4-chloro-3-methoxy-5-methyl-phenyl)-1-piperidyl]-3-oxo-propyl]-5-methyl-imidazolidine-2,4-dione]	> 100	0.001 to 25	> 100	50 to 100	25 to 50	
COc1cc(C2CCN(C(=O)[C@@H](C)C[C@@]3(C)NC(=O)NC3=O)CC2)cc(F)c1Cl [Cpd 102]	> 100	0.001 to 25	> 100	25 to 50	50 to 100	
CCc1cc(C2CCN(C(=O)CC[C@@]3(C)NC(=O)NC3=O)CC2)cc(OC)c1Cl [Cpd 105, (5R)-5-[3-[4-(4-chloro-3-ethyl-5-methoxy-phenyl)-1-piperidyl]-3-oxo-propyl]-5-methyl-imidazolidine-2,4-dione]	> 100	0.001 to 25	> 100	> 100	25 to 50	
CCc1cc(C2CCN(C(=O)CC[C@H]3NC(=O)NC3=O)CC2)cc(OC)c1Cl [Cpd 106, (5R)-5-[3-[4-(4-chloro-3-ethyl-5-methoxy-phenyl)-1-piperidyl]-3-oxo-propyl] imidazolidine-2,4-dione]	> 100	0.001 to 25	> 100	> 100	50 to 100	

Continued, values first:

IC50 (human MMP13) [nM]	IC50 (human ADAMTS6) [nM]	IC50 (human MMP14) [nM]	IC50 (human ADAMTS-5) [nM]	IC50 (human TACE; 5FAM-[…]-5TAMRA) [nM]	IC50 (human TACE; 5FAM-LAQAVRSSSRK-5TAMRA) [nM]	SMILES
> 100	0.001 to 25	> 100	> 100		> 100	COc1cc(Cl)c(Cl)cc1C1CCN(C(=O)CC[C@H]2NC(=O)NC2=O)CC1 [Cpd 61, (R)-5-(3-(4-(4,5-dichloro-2-methoxyphenyl)piperidin-1-tl)-3-oxopropyl) imidazolidine-2,4-dione]
> 100	25 to 50	> 100	> 100		> 100	Cc1cc(Cl)c(F)cc1C1CCN(C(=O)CCC2(C)NC(=O)NC2=O)CC1 (centres unmarked) [Cpd 64, 5-(3-(4-(4-chloro-5-fluoro-2-methylphenyl)piperidin-1-yl)-3-oxopropyl)-5-methyl-imidazolidine-2,4-dione]
> 100	> 100	> 100	> 100		> 100	COc1c(Cl)cccc1C1CCN(C(=O)CC[C@H]2NC(=O)NC2=O)CC1 [Cpd 74, (R)-5-(3-(4-(3-chloro-2-methoxyphenyl)piperidin-1-yl)-3-oxopropyl) imidazolidine-2,4-dione]
> 100	> 100	> 100	> 100		> 100	COc1c(Cl)cccc1C1CCN(C(=O)CCC2(C)NC(=O)NC2=O)CC1 (centres unmarked) [Cpd 75, 5-(3-(4-(3-chloro-2-methoxyphenyl)piperidin-1-yl)-3-oxopropyl)-5-methylimidazolidine-2,4-dione]
> 100	0.001 to 25	> 100	50 to 100	25 to 50		COc1cc(C2CCN(C(=O)CC[C@@]3(C)NC(=O)NC3=O)CC2)cc(Cl)c1F [Cpd 80, (5R)-5-[3-[4-(3-chloro-4-fluoro-5-methoxy-phenyl)-1-piperidyl]-3-oxo-propyl]-5-methyl-imidazolidine-2,4-dione]
> 100	0.001 to 25	> 100	> 100	50 to 100		CCOc1cc(C2CCN(C(=O)CC[C@@]3(C)NC(=O)NC3=O)CC2)cc(OC)c1Cl [Cpd 87, (5R)-5-[3-[4-(4-chloro-3-ethoxy-5-methoxy-phenyl)-1-piperidyl]-3-oxo-propyl]-5-methyl-imidazolidine-2,4-dione]
> 100	0.001 to 25	> 100	> 100	50 to 100		COc1cc(C2CCN(C(=O)CC[C@@]3(C)NC(=O)NC3=O)CC2)cc(N(C)C)c1Cl [Cpd 90, (5R)-5-[3-[4-[4-chloro-3-(dimethylamino)-5-methoxy-phenyl]-1-piperidyl]-3-oxo-propyl]-5-methyl-imidazolidine-2,4-dione]
> 100	0.001 to 25	> 100	> 100	50 to 100		COc1cc(Cl)c(Cl)cc1C1CCN(C(=O)CC[C@@]2(C)NC(=O)NC2=O)CC1 [Cpd 96, (5R)-5-[3-[4-(4,5-dichloro-2-methoxy-phenyl)-1-piperidyl]-3-oxo-propyl]-5-methyl-imidazolidine-2,4-dione]
> 100	0.001 to 25	> 100	> 100		> 100	COc1cc(Cl)c(F)cc1C1CCN(C(=O)CC[C@@]2(C)NC(=O)NC2=O)CC1 [Cpd 100, (5R)-5-[3-[4-(4-chloro-5-fluoro-2-methoxy-phenyl)-1-piperidyl]-3-oxo-propyl]-5-methyl-imidazolidine-2,4-dione]
> 100	25 to 50	> 100	> 100		> 100	COc1cc(F)c(Cl)cc1C1CCN(C(=O)CC[C@@]2(C)NC(=O)NC2=O)CC1 [Cpd 101, (5R)-5-[3-[4-(5-chloro-4-fluoro-2-methoxy-phenyl)-1-piperidyl]-3-oxo-propyl]-5-methyl-imidazolidine-2,4-dione]
